Earlier results, collected in US20240366505A1, “Liquid Resin Extended-Release Oral Naltrexone Formulation for Treating Autism-Related Disorders” (AARDVARK THERAPEUTICS, INC., priority 2022, published 2024).
Like-named read-outs stand apart in the source and are kept apart here.

Experiments:
[1] = single 50 mg REVIA tablet
[2] = 6-β-naltrexol; 50 mg REVIA tablets once daily for 7 days
[3] = 50 mg once daily
autistic behavior = conditions: 0.5, 1.0 and 2.0 mg/kg immediate release oral
[4] = in vivo
ASD children = conditions: 20 mg immediate release per day for 4 weeks
children with ASD = conditions: 1.0 mg/kg single daily immediate release oral dose, 12 or 14 days

SMILES | AUC(0-inf) ([1]; 6-β-naltrexol, mean (CV%)) [ng·h/mL] | Cmax ([1]; 6-β-naltrexol, mean (CV%)) [ng/mL] | Tmax ([1]; 6-β-naltrexol, mean (CV%)) [h] | AUC(0-τ) [2] [ng·h/mL] | Cmax [2] [ng/mL] | rate of early discontinuation of treatment versus placebo [3] | adverse effects versus placebo ([3]; weeks 1, 5 and 8) | Tmax ([1]; naltrexone, Mean (CV %)) [h] | effect on autistic behavior and gaze aversion (autistic behavior) | incidence of difficulty sleeping, anxiety, nervousness, abdominal pain/cramps, nausea and/or vomiting, low energy, joint/muscle pain, headache [4] | incidence of loss of appetite, diarrhea, constipation, thirstiness, increased energy, feeling down, irritability, dizziness, skin rash, delayed ejaculation, erectile dysfunction, chills [4] | accumulation (after 100 mg daily doses) | excretion of parent drug and metabolites by the kidney (human, in vivo) | dose absorbed from the gastrointestinal tract (human, in vivo, po) | urinary excretion of unchanged naltrexone (immediate release formulations) | dose proportionality of AUC and Cmax (over the range of 50-200 mg) | CGI ratings of the teachers (ASD children) | behavior ratings completed by the teachers (Aberrant Behavior Checklist (ABC) scores) (ASD children) | changes in parent measures (CGI, Conners IHF, SE-Restlessness) and Teacher CGI (children with ASD)
Oc1ccc2c3c1O[C@H]1[C@H](O)CC[C@@]4(O)[C@@H](C2)N(CC2CC2)CC[C@]314 [6-β-naltrexol] | 717.3 | 85.6 | 1.05 | 788 ± 134.8 | 96.1 ± 21.05 |  |  |  |  |  |  |  |  |  |  |  |  |  | 
O=C1CC[C@@]2(O)[C@H]3Cc4ccc(O)c5c4[C@@]2(CCN3CC2CC2)[C@H]1O5 [naltrexone, 17-(cyclopropylmethyl)-4,5α-epoxy-3,14-dihydroxy-morphinan-6-one] |  |  |  |  |  | greater rate | significantly more adverse effects | 1.07 | reverse autistic behavior and gaze aversion | Greater than 10% | Less than 10% | do not accumulate | 53-79 % of the dose | approximately 96% | less than 2 % of an oral dose | dose-proportional | Significant difference | significant changes | achieved statistical significance
